Assay [1] has as its target T1, IKZF1 (Ikaros) (Homo sapiens, UniProt Q13422).
T1 construct: endogenous in cells; host or cells: MM1S (ATCC CRL-2974)
In words: Western blot selectivity assay in MM1S cells: IKZF1. The class given is cell-based. Also on record: key: A represents a no degradation observed at 30 μM; B represents trace degradation at 30 μM (below 20%); C represents weak degradation at 30 μM (below 50%); D represents degradation at 30 μM (>90%); E represents degradation at 3 μM (>90%); F represents degradation at 0.3 μM (>90%). Conditions: MM1S cells, 0.3, 3 and 30 μM, 6 hours. The protocol:
MM1S cells were purchased from ATCC (cat. Number CRL-2974), sub-cultured in 90% RPMI 1640 with 10% FBS, supplemented with 1×P/S and incubated at 37° C., 5% CO2. Compounds were stored as 10 mM DMSO stock. For the assay, MM1S cells (3 million cells/well) were plated in 6-well plates and incubated over night. Cells were treated with respective compounds using a serial dilution: 0.3 μM, 3 μM and 30 μM as well as a vehicle only (DMSO) control for 6 hours. Media with suspension cells was subsequently transferred to 15 mL conical tubes, wells rinsed twice with ice-cold PBS and merged with cell suspension in respective 15 mL conical tube. Cells were spinned down, supernatant aspirated, pellets resuspended in ice-cold PBS and transferred to microtubes. Cells were spinned down, supernatant aspirated and pellets resuspended in 120 μL RIPA lysis buffer supplemented with protease and phosphatase inhibitors. Cell lysates were incubated on ice for 20 minutes followed by centrifugation at >20,000×g for 5 min. Supernatants were transferred to fresh microtubes and stored at −80° C. Total protein concentration was determined using a BCA assay with a BSA standard curve and concentration of all samples was adjusted to 1 mg/mL. 25 μL 4×LDS sample buffer supplemented with 100 mM DTT was added to 75 μL sample. Samples were centrifuged (8,000×g, 1 min) and incubated at 95° C. for 5 min followed by another centrifugation step (8,000×g, 1 min). 20 μL of each sample was loaded on a 4-12% gel alongside a protein molecular weight marker. Gels were run in the presence of MOPS buffer at 80 Volts for 30 min, followed by 120 Volts for 1.5 h and proteins subsequently transferred onto nitrocellulose membranes at 20 Volts for 7 min using an iBlot2 Gel Transfer Device. Membranes were then cut horizontally into two pieces, covering 80-50 kDa and 50-25 kDa. Blocking the membranes was performed by gently shaking in 5% (w/v) skim milk in TSB-T for 1 hr at room temperature. All primary antibodies were used at a 1/1000 in 5% (w/v) BSA dissolved in TBST and incubated with membranes over night at 4° C. Anti-IKZF1 (Ikaros; D6N9Y; 14859S), anti-IKZF3 (Aiolos; D1C1E; 15103S) antibodies were purchased from Cell Signalling Technology, anti-ZFP91 antibody from Bethyl laboratories, anti-GSPT1 from Sigma Aldrich (HPA052488) and anti CK1alpha from AbCam (ab206652). After three washes with 1×TBST for 5 min, HRP-coupled secondary antibodies diluted in 5% (w/v) BSA/TBST (Goat Anti-Rb IgG, dil. 1/10,000; Goat Anti-Mouse IgG, dil. 1/5000) were added for 1 hr at room temperature. After three washes with 1×TBST (5 minutes each), membranes were incubated with ECL reagent for 1 min at room temperature. Chemiluminescence signals were then detected using a LAS-4000 system with default settings and signals quantified using Image Studio Lite software (version 5.2). Membrane parts previously incubated with antibody against CK1alpha were stripped off antibodies by incubating with stripping buffer for 30 minutes followed by three washed with TBST (5 min each), blocking with 5% (w/v) skim milk for 1 hr, and incubation with primary antibody against GAPDH overnight at 4° C. Subsequent washes, incubation with secondary antibody and signal acquisition were performed as described above.
(In general: A western blot detects proteins with antibodies after separation by electrophoresis.)

Assay [2] deals with NCI-H1155, ABC-1 and EBC-1, NCI-H2023 cell lines. In words: Viability assay (CellTiter-Glo) in N-Myc high and N-Myc low NSCLC cell lines. The settings on record: 72 hours. The class given is cell-based. The protocol: The anti-proliferative activity of compound 10 was tested on representative N-Myc high and N-Myc low cell lines (NCI-H1155, ABC-1 and EBC-1, NCI-H2023, respectively) following treatment with compound for 72 hours. Cells were sub-cultures as recommended by the providers (ATCC, DSMZ) and incubated at 37° C., 5% CO2. All cells were authenticated and confirmed by Short Tandem Repeat (STR) profiling. Briefly, cells were seeded to the appropriate density to allow logarithmic growth over the assay period in 96-well opaque-walled clear bottom plates (from Corning, Cat. No. 3903, Lot. No. 16419061; 100 μL total volume) and incubated overnight. […] Cell viability was assessed using the CellTiter-Glo assay kit as recommended by the Manufacturer (Promega, Cat. No. G7558, Lot. No. 0000385738) and measurements performed on the EnSpire multimode plate reader (Perkin Elmer). EC50 values were determined using Prism8 (GraphPad) and the asymmetric (five-parameter) equation and least squares fit. GSPT1 levels were assessed in the NCI-H1155 and ABC-1 cell lines by densitometry analysis following treatment with compound 10 for 6 hours and western blotting analysis. […] For chemiluminescence and colorimetric signals “optimal automatic exposure” settings (3×3 binning) were employed while fluorescence was detected using 1-4 seconds exposure time to achieve best GAPDH signals and avoid overexposure. […]

T1 sequence (Q96SW2 whole entry partner): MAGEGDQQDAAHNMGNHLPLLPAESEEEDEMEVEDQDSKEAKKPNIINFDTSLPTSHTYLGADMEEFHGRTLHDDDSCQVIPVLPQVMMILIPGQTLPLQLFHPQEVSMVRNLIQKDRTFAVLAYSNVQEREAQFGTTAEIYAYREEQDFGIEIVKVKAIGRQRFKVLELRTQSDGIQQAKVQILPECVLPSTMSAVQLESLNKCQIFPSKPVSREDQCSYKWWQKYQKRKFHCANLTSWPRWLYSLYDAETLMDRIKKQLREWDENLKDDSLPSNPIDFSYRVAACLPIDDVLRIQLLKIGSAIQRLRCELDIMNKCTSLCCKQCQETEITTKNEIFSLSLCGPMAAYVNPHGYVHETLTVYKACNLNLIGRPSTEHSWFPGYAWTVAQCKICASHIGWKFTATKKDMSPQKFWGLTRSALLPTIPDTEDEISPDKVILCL
T1 sequence (Q16531 2-1140 partner limits assumed): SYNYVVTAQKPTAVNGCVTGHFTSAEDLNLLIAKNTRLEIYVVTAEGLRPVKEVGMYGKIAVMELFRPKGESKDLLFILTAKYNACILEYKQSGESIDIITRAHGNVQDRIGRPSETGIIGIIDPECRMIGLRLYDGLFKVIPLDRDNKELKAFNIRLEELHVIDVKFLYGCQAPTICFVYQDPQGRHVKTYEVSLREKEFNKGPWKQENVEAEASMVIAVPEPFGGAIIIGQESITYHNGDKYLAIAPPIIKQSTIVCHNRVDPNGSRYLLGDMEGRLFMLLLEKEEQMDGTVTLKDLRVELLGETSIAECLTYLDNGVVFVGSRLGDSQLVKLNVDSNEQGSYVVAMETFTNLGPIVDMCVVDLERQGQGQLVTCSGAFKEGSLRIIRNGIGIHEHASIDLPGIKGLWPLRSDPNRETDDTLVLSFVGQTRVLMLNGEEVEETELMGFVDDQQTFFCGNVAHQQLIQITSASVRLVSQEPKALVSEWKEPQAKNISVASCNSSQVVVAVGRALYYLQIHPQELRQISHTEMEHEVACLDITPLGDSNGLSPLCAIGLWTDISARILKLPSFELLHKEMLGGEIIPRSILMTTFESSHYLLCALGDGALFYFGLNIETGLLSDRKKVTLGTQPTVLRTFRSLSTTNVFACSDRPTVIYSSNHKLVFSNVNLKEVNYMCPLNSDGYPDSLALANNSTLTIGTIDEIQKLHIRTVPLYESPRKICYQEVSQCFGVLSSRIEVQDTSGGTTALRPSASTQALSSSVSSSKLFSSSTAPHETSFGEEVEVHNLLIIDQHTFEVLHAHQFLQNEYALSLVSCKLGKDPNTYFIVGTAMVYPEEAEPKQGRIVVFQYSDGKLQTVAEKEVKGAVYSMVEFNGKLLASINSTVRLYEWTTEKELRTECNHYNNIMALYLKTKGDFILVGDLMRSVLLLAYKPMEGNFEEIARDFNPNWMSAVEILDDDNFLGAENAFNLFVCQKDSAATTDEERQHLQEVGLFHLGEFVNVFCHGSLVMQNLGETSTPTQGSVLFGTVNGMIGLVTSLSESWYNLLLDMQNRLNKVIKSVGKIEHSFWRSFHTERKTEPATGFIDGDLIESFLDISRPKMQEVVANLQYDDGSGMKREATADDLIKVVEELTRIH
T1 sequence (Q13422 whole entry): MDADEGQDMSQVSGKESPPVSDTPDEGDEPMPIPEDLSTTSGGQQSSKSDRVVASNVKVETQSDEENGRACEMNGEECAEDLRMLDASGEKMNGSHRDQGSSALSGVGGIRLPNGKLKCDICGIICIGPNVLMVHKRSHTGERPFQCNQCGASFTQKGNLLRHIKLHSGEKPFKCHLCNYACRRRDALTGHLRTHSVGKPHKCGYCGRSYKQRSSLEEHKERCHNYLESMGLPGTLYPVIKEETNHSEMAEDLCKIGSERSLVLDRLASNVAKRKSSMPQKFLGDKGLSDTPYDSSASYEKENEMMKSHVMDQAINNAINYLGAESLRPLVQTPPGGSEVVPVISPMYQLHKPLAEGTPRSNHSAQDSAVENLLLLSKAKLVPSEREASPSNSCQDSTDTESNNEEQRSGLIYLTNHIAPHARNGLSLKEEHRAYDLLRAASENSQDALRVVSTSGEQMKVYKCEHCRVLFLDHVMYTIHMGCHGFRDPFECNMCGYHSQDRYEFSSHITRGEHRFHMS

Take `Cc1ccc(NC(=O)OCc2ccc3c(c2)C(=O)N(C2CCC(=O)NC2=O)C3)cc1Cl` (centres unmarked) [Compound 10]: the IKZF1 degradation result in assay [1] was “A”. Moreover, the “Sensitivity (anti-proliferative activity) versus N-Myc expression (FIG. 2A)” value in assay [2] is listed as “sensitivity correlated with the expression of N-Myc”.
